Data taken from ChEMBL document CHEMBL1201862, “PubChem BioAssay data set” (2004).
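Dose response: 5 concentrations. Exposure: 48 h. Format: 96-well plates. Endpoint: linear interpolation; highest concentration if not reached. GI50 = concentration required for 50% inhibition of growth.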 Active and inactive are the calls of the source. Cut-off read from the data, not from the text of the source: active = GI50 up to about 1.1 µM and inactive = higher.

How the values were obtained:
Assay in all cases: NCI-60 cell line screen, 48 h
KM-20L2 = tested on: KM-20L2
RXF 631 = tested on: RXF 631
DLD-1 = tested on: DLD-1
DMS-273 = tested on: DMS-273
SNB-78 = tested on: SNB-78
M19-MEL = tested on: M19-MEL
XF498 = tested on: XF498
HOP-18 = tested on: HOP-18
DMS-114 = tested on: DMS-114

Measured: GI50

O=[N+]([O-])c1cccc(C2=NN(c3ccccc3)C3c4ccccc4OCC23)c1 (configuration not stated)
inactive: KM-20L2 > 100 µM | RXF 631 > 100 µM | DLD-1 > 100 µM | DMS-273 > 100 µM | SNB-78 > 100 µM | M19-MEL > 100 µM | XF498 > 100 µM | HOP-18 > 100 µM | DMS-114 > 100 µM

CC(=O)OCC1OC(OC2CC3C(C)(C)C(OC(C)=O)CC[C@]3(C)C3CCC45CC4(CC[C@H]5C(C)CC(O)C4OC4(C)C)[C@]23C)C(O)C(O)C1O (some centres not stated)
inactive: KM-20L2 1.85 µM | RXF 631 2.32 µM | DLD-1 1.79 µM | DMS-273 1.99 µM | SNB-78 5.71 µM | M19-MEL 1.93 µM | XF498 1.53 µM | HOP-18 2.2 µM | DMS-114 1.58 µM

CN(C)CCCN1N=Nc2cccc3cccc1c23
inactive: KM-20L2 54.3 µM | RXF 631 87.5 µM | DLD-1 > 60.1 µM | DMS-273 19.4 µM | SNB-78 62.4 µM | M19-MEL > 51.4 µM | XF498 86.9 µM | HOP-18 99.3 µM | DMS-114 > 42.1 µM
